Where “and” joins values, the source holds several entries; their conditions need not be identical. Equal entries are not always repeated.
What was measured:
[1] = system: STAT-5 Y694 phosphorylation in CD8+ OT-I cells; experiment: Basal and IL-2-induced STAT-5 Y694 phosphorylation in activated OT-I cells; format: cell-based, mouse; settings: for p-STAT-5 MFI, single replicates: 1 μM, IL-2 5 ng/ml, Fig. 2F raw data, listed as CMP-182; for p-STAT-5, group mean (Mean 2): IL-2 5 ng, N 6
Method: For assessing IL-2-induced STAT-5 Y694 phosphorylation (p-STAT-5) in activated OT-I cells, single cell suspension of OT-I cells from the lymph nodes of OT-I;Ptpn2^fl/fl mice were stimulated with 1 nM […] (N4) for 16 h. […] Reactions were terminated by washing the cells with ice-cold PBS and then stained with fixable viable dye and fluorophore-conjugated antibodies to CD8 on ice for 15 min. Cells were then washed and fixed with 4% (w/w) paraformaldehyde (BD Cytofix™Fixation Buffer) at room temperature for 30 min and permeabilised with 90% (v/v) methanol at −20 °C for 30 min. Permeabilised cells were incubated with a rabbit antibody specific for p-STAT-5 (p-STAT-5; D47E7, Cell Signaling Technology) for 60 min at room temperature, washed thrice with PBS and then stained with goat anti-rabbit IgG (H + L) F(ab’)2 fragment conjugated to Alexa Fluor 647 (Jackson ImmunoResearch Labs; West Grove, PA) to monitor for p-STAT-5 in CD8^+ OT-I cells by flow cytometry.

[2] = system: p-STAT-1 and CD3 in AT3 tumors; experiment: Immunohistochemistry for p-STAT-1 (Y701) and CD3 in AT3 tumors; format: in vivo, mouse; settings: 10 mg/kg i.v.
Method: For the immunohistochemistry analysis of mammary tumor samples, samples were dissected and fixed in 10% formalin. After fixation, the tissues were embedded in paraffin and sectioned onto microscopic glass slides at 4 μm thickness per section. After deparaffinization and rehydration, the slides were subjected to antigen retrieval in Tris/EDTA buffer (pH 8.0) at 120 °C for 10 min and then cooled down to room temperature. The slides were blocked with 5% (v/v) normal goat serum (NGS) containing 0.1% (v/v) TritonX-100 in PBS for 1 h at room temperature and then incubated with primary antibody p-STAT-1 (Tyr701) (1:500; Cell Signaling Technology), or CD3ε (1:1000; Dako) at room temperature for 1 h. Slides were then washed with PBS containing 0.05% (w/v) Tween-20 and visualized using a rabbit IgG VECTORSTAIN ABC Elite and DAB (3,3′‐diaminobenzidine) Peroxidase Substrate Kit (Vector Laboratories, UK) and counterstained with haematoxylin. Slides were imaged on an Olympus CX43 microscope (Olympus, Tokyo, Japan).

AT3 mammary tumors = experiment: AT3 tumor growth, Compound 182 with α-PD-1 checkpoint blockade; format: in vivo, mouse
Method: Male or female mice were injected subcutaneously with 5 × 10^5 MC38 tumor cells resuspended in 100 μl D-PBS into the flank. Alternatively, female mice were injected orthotopically with 5 × 10^5 AT3 or AT3-OVA or PTPN2-deleted AT3 or AT3-OVA tumor cells resuspended in 20 μl D-PBS into the fourth mammary fat pad. Tumor sizes were measured in two dimensions (mm^2) using electronic callipers two to three times per week as soon as tumors were palpable (20–25 mm^2).
In addition, mice received four intraperitoneal injections of α-PD-1 (200 μg in 200 μl D-PBS; clone RMP1-14), or rat IgG2a isotype control (100 μg in 200 μl D-PBS, Bio X Cell) twice per week.

CC(C)(O)CCOc1ccc2cc(O)c(N3CC(=O)NS3(=O)=O)c(F)c2c1 [Compound 182, 5-(1-Fluoro-3-hydroxy-7-(3-hydroxy-3-methylbutoxy)naphthalen-2-yl)−1,2,5-thiadiazolidin-3-one 1,1-dioxide]
p-STAT-5 MFI, single replicates ([1]; time 0): 5942 and 5539 and 8398 and 8753 and 4540 and 4913 | p-STAT-5 MFI, single replicates ([1]; time 5): 14341 and 15725 and 15901 and 18555 and 14928 and 16788 | p-STAT-5 MFI, single replicates ([1]; time 15): 16676 and 18523 and 19580 and 20940 and 16523 and 19213 | p-STAT-5 MFI, single replicates ([1]; time 30): 16027 and 18696 and 19133 and 19342 and 15170 and 18785 | p-STAT-5 MFI, single replicates ([1]; time 60): 13163 and 13881 and 14770 and 14670 and 10937 and 14331 | p-STAT-5 MFI, single replicates ([1]; time 120): 10820 and 12152 and 10493 and 12920 and 10327 and 12862 | basal and IL-2-induced STAT-5 Y694 phosphorylation (p-STAT-5) ([1]; CD8+ T cells): enhanced | p-STAT-5, column mean ([1]; CD8, IL-2 5 ng, mean over all times, two-way ANOVA, Fig. 2F): 14007 | p-STAT-5, group mean (Mean 2) ([1]; Row 1 (time 0), Fig. 2F): 6348 | p-STAT-5, group mean (Mean 2) ([1]; Row 2 (time 5), Fig. 2F): 16040 | p-STAT-5, group mean (Mean 2) ([1]; Row 3 (time 15), Fig. 2F): 18576 | p-STAT-5, group mean (Mean 2) ([1]; Row 4 (time 30), Fig. 2F): 17859 | p-STAT-5, group mean (Mean 2) ([1]; Row 5 (time 60), Fig. 2F): 13625 | p-STAT-5, group mean (Mean 2) ([1]; Row 6 (time 120), Fig. 2F): 11596 | pSTAT5, single replicates ([1]; N4 1 nM 16 h, then 1 μM 1 h, no IL-2, Fig. 2E raw data, listed as WT+I): 60.1 and 62.9 and 57.6 and 60.3 | pSTAT5%, mean of differences (B - A) ([1]; WT+I vs. WT, 4 pairs, Fig. 2E): 12.98 | tumor p-STAT-1 and CD3+ T cell infiltrates in AT3 tumors of Lck-Cre;Ptpn2fl/fl mice [2]: enhanced promotion | response of AT3 tumors to PD-1 checkpoint blockade (AT3 mammary tumors; 10 mg/kg i.v. every 2 days with α-PD-1 200 μg i.p. twice per week): rendered otherwise largely resistant AT3 tumors sensitive | AT3 tumor growth, combination therapy (AT3 mammary tumors; Compound 182 10 mg/kg i.v. + α-PD-1 200 μg i.p.): marked repression | Tumour weights (AT3 mammary tumors; Figure 9C, AT-3, individual mice, listed as CMP-182, in mg (unit assumed)): 195 and 335 and 220 and 301 and 250 and 332
